Experimental data from patent publication US11919901B2 (Syndax Pharmaceuticals, Inc., priority 2021, dated 2024).

Assays:
hERG = hERG (Homo sapiens (Human), UniProt Q12809); assay: Patch clamp assay (hERG tail currents, whole-cell); type: cell-based; details: hERG transfected HEK 293 cells; for hERG % Remaining 30 μM: 30 μM compound; for hERG % Remaining 10 μM: 10 μM compound
Menin-MLL = Menin-MLL (Homo sapiens (Human), UniProt O00255); assay: Determination of binding constants (Ki) to Menin-MLL (HTRF); details: HTRF, 0.25 nM H-FL-Menin, 3.2 nM FITC-MLL-4-43, 24 hr incubation; for Ki: read-out: Menin-MLL Ki HTRF Assay: Ki
Chain of Menin-MLL (O00255 whole entry): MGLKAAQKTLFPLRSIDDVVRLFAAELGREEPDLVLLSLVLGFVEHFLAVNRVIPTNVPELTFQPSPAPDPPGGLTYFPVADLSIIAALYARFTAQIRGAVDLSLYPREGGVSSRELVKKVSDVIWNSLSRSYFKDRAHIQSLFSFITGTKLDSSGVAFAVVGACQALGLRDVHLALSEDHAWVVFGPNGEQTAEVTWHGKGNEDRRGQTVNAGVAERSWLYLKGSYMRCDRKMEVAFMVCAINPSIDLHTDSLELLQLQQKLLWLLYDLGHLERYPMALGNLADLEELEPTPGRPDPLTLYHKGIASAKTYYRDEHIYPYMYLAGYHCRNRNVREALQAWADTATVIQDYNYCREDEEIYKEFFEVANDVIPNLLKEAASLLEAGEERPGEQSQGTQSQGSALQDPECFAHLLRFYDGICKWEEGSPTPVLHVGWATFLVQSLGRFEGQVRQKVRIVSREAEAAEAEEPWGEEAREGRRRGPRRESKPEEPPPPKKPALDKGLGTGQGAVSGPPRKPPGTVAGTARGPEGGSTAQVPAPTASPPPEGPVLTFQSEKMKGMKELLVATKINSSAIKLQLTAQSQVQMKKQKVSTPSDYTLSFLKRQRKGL

Chain of hERG (Q12809 whole entry): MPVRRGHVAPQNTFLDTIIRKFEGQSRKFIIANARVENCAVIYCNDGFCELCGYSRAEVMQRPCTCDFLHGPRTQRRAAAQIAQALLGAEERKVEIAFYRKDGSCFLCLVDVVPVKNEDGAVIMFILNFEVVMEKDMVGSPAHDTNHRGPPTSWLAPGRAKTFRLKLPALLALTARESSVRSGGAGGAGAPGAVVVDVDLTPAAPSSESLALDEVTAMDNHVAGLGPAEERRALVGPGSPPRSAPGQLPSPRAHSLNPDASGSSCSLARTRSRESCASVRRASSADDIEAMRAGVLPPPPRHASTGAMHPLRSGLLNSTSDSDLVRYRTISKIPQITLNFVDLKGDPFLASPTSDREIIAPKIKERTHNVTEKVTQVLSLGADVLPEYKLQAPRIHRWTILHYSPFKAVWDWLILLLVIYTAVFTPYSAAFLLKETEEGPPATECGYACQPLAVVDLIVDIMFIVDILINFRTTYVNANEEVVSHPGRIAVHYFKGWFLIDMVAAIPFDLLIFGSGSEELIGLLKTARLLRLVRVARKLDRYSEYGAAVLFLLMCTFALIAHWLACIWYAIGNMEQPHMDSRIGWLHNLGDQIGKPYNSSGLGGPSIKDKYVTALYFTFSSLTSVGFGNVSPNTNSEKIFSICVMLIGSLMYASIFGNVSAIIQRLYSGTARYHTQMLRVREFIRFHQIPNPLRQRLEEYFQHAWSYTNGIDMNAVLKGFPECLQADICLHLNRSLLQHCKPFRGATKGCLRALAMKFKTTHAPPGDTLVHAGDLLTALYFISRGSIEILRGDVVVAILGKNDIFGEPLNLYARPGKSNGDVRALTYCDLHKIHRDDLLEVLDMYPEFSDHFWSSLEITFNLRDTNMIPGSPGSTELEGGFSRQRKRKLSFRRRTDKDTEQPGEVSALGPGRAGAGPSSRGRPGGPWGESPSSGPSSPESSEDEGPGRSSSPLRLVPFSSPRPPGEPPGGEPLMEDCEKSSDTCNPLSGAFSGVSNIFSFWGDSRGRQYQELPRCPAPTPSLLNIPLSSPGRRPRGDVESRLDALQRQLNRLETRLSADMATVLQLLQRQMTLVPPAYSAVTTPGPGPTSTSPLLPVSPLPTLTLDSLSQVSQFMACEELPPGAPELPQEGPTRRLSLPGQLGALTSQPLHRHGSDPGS

Compound	hERG % Remaining 30 μM (hERG)	Ki (Menin-MLL)	hERG % Remaining 10 μM (hERG)	EC50 (Menin-MLL)	IC50 (hERG)	hERG % Remaining 1 μM (hERG; 1 μM compound)	hERG % Remaining 3 μM (hERG; 3 μM compound)	hERG % Remaining 100 μM (hERG; 100 μM compound)
C[C@@H]1COC[C@@H](C)N1C(=O)c1cc(F)ccc1Oc1cncnc1N1CC2(CCN(C[C@@H]3CC[C@@H](NS(=O)(=O)N4CCC[C@H]4C)CO3)CC2)C1 [Compound 208, (R)-N-((3R,6S)-6-((2-(5-(2-((3R,5R)-3,5-Dimethylmorpholine-4-carbonyl)-4-fluorophenoxy)pyrimidin-4-yl)-2,7-diazaspiro[3.5]nonan-7-yl)methyl)tetrahydro-2H-pyran-3-yl)-2-methylpyrrolidine-1-sulfonamide]	+++ (“+++” means ≥66%)	< 1 nM	–	–	–	–	–	–
CC(C)N(CC(F)F)C(=O)c1cc(F)ccc1Oc1cncnc1N1CC2(CCN(C[C@@H]3CC[C@@H](NS(=O)(=O)C4CC4)CO3)CC2)C1 [Compound 47, 2-((4-(7-(((2S,5R)-5-(cyclopropanesulfonamido)tetrahydro-2H-pyran-2-yl)methyl)-2,7-diazaspiro[3.5]nonan-2-yl)pyrimidin-5-yl)oxy)-N-(2,2-difluoroethyl)-5-fluoro-N-isopropylbenzamide]	++ (“++” means ≥33% and <66%)	< 1 nM	+++ (“+++” means ≥66%)	< 50 nM	–	–	–	–
CC(C)N(C(=O)c1cc(F)ccc1Oc1cncnc1N1CC2(CCN(C[C@@H]3CC[C@@H](NS(=O)(=O)c4cnn(C)c4)CO3)CC2)C1)C1CC(F)(F)C1 [Compound 156, N-(3,3-Difluorocyclobutyl)-5-fluoro-N-isopropyl-2-((4-(7-(((2S,5R)-5-((1-methyl-1H-pyrazole)-4-sulfonamido)tetrahydro-2H-pyran-2-yl)methyl)-2,7-diazaspiro[3.5]nonan-2-yl)pyrimidin-5-yl)oxy)benzamide]	+++ (“+++” means ≥66%)	< 1 nM	–	–	–	–	–	–
CCN(CC)S(=O)(=O)N[C@@H]1CC[C@@H](CN2CCC3(CC2)CN(c2ncncc2Oc2ccc(F)cc2C(=O)N(CC(F)F)C(C)C)C3)OC1 [Compound 97, 2-((4-(7-(((2S,5R)-5-((N,N-Diethylsulfamoyl)amino)tetrahydro-2H-pyran-2-yl)methyl)-2,7-diazaspiro[3.5]nonan-2-yl)pyrimidin-5-yl)oxy)-N-(2,2-difluoroethyl)-5-fluoro-N-isopropylbenzamide]	+ (“+” means <33%)	< 1 nM	++ (“++” means ≥33% and <66%)	< 50 nM	–	–	–	–
C[C@@H]1COC[C@@H](C)N1C(=O)c1cc(F)ccc1Oc1cncnc1N1CC2(CCN(C[C@@H]3CC[C@@H](NS(=O)(=O)NCC4CC4)CO3)CC2)C1 [Compound 158, (Cyclopropylmethyl)({[(3R,6S)-6-{[2-(5-{2-[(3R,5R)-3,5-dimethylmorpholine-4-carbonyl]-4-fluorophenoxy}pyrimidin-4-yl)-2,7-diazaspiro[3.5]nonan-7-yl]methyl}oxan-3-yl]sulfamoyl})amine]	+++ (“+++” means ≥66%)	< 1 nM	–	–	–	–	–	–
CC(C)N(C(=O)c1cc(F)ccc1Oc1cncnc1N1CC2(CCN(C[C@@H]3CC[C@@H](NS(=O)(=O)c4cnn(C)c4)CO3)CC2)C1)C(C)C [Compound 86, 5-Fluoro-N,N-diisopropyl-2-((4-(7-(((2S,5R)-5-((1-methyl-1H-pyrazole)-4-sulfonamido)tetrahydro-2H-pyran-2-yl)methyl)-2,7-diazaspiro[3.5]nonan-2-yl)pyrimidin-5-yl)oxy)benzamide]	+++ (“+++” means ≥66%)	< 1 nM	+++ (“+++” means ≥66%)	–	≥ 50000 nM	–	–	–
CC(C)N(C(=O)c1cc(F)ccc1Oc1cncnc1N1CC2(CCN(C[C@@H]3CC[C@@H](NS(=O)(=O)N4CC5COCC5C4)CO3)CC2)C1)C(C)C (stereo partly drawn) [Compound 224, 5-Fluoro-2-((4-(7-(((2S,5R)-5-((hexahydro-1H-furo[3,4-c]pyrrole)-5-sulfonamido)tetrahydro-2H-pyran-2-yl)methyl)-2,7-diazaspiro[3.5]nonan-2-yl)pyrimidin-5-yl)oxy)-N,N-diisopropylbenzamide]	+++ (“+++” means ≥66%)	< 1 nM	–	–	–	–	–	–
CC(C)N(C(=O)c1cc(F)ccc1Oc1cncnc1N1CC2(CCN(C[C@@H]3CC[C@@H](NS(C)(=O)=O)CO3)CC2)C1)C(C)C [Compound 12, 5-fluoro-N,N-diisopropyl-2-((4-(7-(((2S,5R)-5-(methylsulfonamido)tetrahydro-2H-pyran-2-yl)methyl)-2,7-diazaspiro[3.5]nonan-2-yl)pyrimidin-5-yl)oxy)benzamide]	+++ (“+++” means ≥66%)	< 1 nM	+++ (“+++” means ≥66%)	< 50 nM	≥ 50000 nM	+++ (“+++” means ≥66%)	+++ (“+++” means ≥66%)	++ (“++” means ≥33% and <66%)
CCN(C(=O)c1cc(F)ccc1Oc1cncnc1N1CC2(CCN(C[C@@H]3CC[C@@H](NS(=O)(=O)c4cccnc4)CO3)CC2)C1)C(C)C [Compound 63, N-Ethyl-5-fluoro-N-isopropyl-2-((4-(7-(((2S,5R)-5-(pyridine-3-sulfonamido)tetrahydro-2H-pyran-2-yl)methyl)-2,7-diazaspiro[3.5]nonan-2-yl)pyrimidin-5-yl)oxy)benzamide]	++ (“++” means ≥33% and <66%)	< 1 nM	+++ (“+++” means ≥66%)	< 50 nM	–	–	–	–
CC(C)N(C(=O)c1cc(F)ccc1Oc1cncnc1N1CC2(CCN(C[C@@H]3CC[C@@H](NS(=O)(=O)N(C)C(C)C)CO3)CC2)C1)C1CC(F)(F)C1 [Compound 119, N-(3,3-Difluorocyclobutyl)-5-fluoro-N-isopropyl-2-((4-(7-(((2S,5R)-5-((N-isopropyl-N-methylsulfamoyl)amino)tetrahydro-2H-pyran-2-yl)methyl)-2,7-diazaspiro[3.5]nonan-2-yl)pyrimidin-5-yl)oxy)benzamide]	+ (“+” means <33%)	< 1 nM	–	–	–	–	–	–
CO[C@@H]1CCN(S(=O)(=O)N[C@@H]2CC[C@@H](CN3CCC4(CC3)CN(c3ncncc3Oc3ccc(F)cc3C(=O)N(C(C)C)C(C)C)C4)OC2)C1 [Compound 211, 5-Fluoro-N,N-diisopropyl-2-((4-(7-(((2S,5R)-5-(((R)-3-methoxypyrrolidine)-1-sulfonamido)tetrahydro-2H-pyran-2-yl)methyl)-2,7-diazaspiro[3.5]nonan-2-yl)pyrimidin-5-yl)oxy)benzamide]	+++ (“+++” means ≥66%)	< 1 nM	–	–	–	–	–	–
CCS(=O)(=O)N[C@@H]1CC[C@@H](CN2CCC3(CC2)CN(c2ncncc2Oc2ccc(F)cc2C(=O)N(C(C)C)C2CC(F)(F)C2)C3)OC1 [Compound 44, N-(3,3-difluorocyclobutyl)-2-((4-(7-(((2S,5R)-5-(ethylsulfonamido)tetrahydro-2H-pyran-2-yl)methyl)-2,7-diazaspiro[3.5]nonan-2-yl)pyrimidin-5-yl)oxy)-5-fluoro-N-isopropylbenzamide]	++ (“++” means ≥33% and <66%)	< 1 nM	+++ (“+++” means ≥66%)	< 50 nM	–	–	–	–
